{"source": "patent US20130079408A1", "about": "“PERACID AND 2-HYDROXY ORGANIC ACID COMPOSITIONS AND METHODS FOR TREATING ITEMS” (Fresh Express Incorporated, priority 2009, published 2013)", "key": {"[1]": {"test_system": "Lactobacillus plantarum 14917", "test": "Suspended cells challenge test at 20 s residence time, no surfactant (Example 2)", "format": "cell-based", "settings": "Peroxyacetic acid 0 ppm"}, "Listeria innocua": {"test_system": "Listeria innocua", "test": "Attached cells challenge test on produce leaves (Example 1)", "format": "cell-based", "settings": "PAA 0 ppm, 45 F, 45 s"}, "E. coli K12": {"test_system": "E. coli K12", "test": "Attached cells challenge test on produce leaves (Example 1)", "format": "cell-based", "settings": "PAA 0 ppm, 45 F, 45 s"}, "[2]": {"test_system": "Pseudomonas aeruginosa (ATCC 9027)", "test": "Non-food surface coupon test (Example 6)", "format": "cell-based", "settings": "90 sec residence time"}, "[3]": {"test_system": "Listeria innocua ATCC 33090", "test": "Suspended cells challenge test at 20 s residence time, no surfactant (Example 2)", "format": "cell-based", "settings": "Peroxyacetic acid 0 ppm"}, "[4]": {"settings": "40 C; cited from earlier work"}, "[5]": {"test_system": "indigenous microorganisms (Aerobic Plate Counts)", "format": "cell-based"}}, "data": [{"smiles": "CC(O)C(=O)O", "note": "(centres unmarked) [Lactic acid, lactic acid]", "values": [{"measurement": "log reduction of suspended Lactobacillus plantarum cells", "setting": "[1]; Lactic Acid 2000 ppm", "value": 0.00}, {"measurement": "log reduction of suspended Lactobacillus plantarum cells", "setting": "[1]; Lactic Acid 2500 ppm", "value": 0.02}, {"measurement": "log reduction of suspended Lactobacillus plantarum cells", "setting": "[1]; Lactic Acid 3000 ppm", "value": 0.01}, {"measurement": "Attached Listeria, Romaine", "setting": "Listeria innocua; LA 0.6%", "value": 1.1}, {"measurement": "Attached Listeria, Spinach", "setting": "Listeria innocua; LA 0.6%", "value": 0.1}, {"measurement": "Attached Listeria, Romaine", "setting": "Listeria innocua; LA 0.9%", "value": 1.4}, {"measurement": "Attached Listeria, Spinach", "setting": "Listeria innocua; LA 0.9%", "value": 0.2}, {"measurement": "Attached Listeria, Romaine", "setting": "Listeria innocua; LA 1.2%", "value": 1.5}, {"measurement": "Attached Listeria, Spinach", "setting": "Listeria innocua; LA 1.2%", "value": 0.2}, {"measurement": "Attached E. Coli, Romaine", "setting": "E. coli K12; LA 0.6%", "value": 0.24}, {"measurement": "Attached E. Coli, Spinach", "setting": "E. coli K12; LA 0.6%", "value": 0.09}, {"measurement": "Attached E. Coli, Romaine", "setting": "E. coli K12; LA 0.9%", "value": 0.37}, {"measurement": "Attached E. Coli, Spinach", "setting": "E. coli K12; LA 0.9%", "value": 0.42}, {"measurement": "Attached E. Coli, Romaine", "setting": "E. coli K12; LA 1.2%", "value": 1.28}, {"measurement": "Attached E. Coli, Spinach", "setting": "E. coli K12; LA 1.2%", "value": 0.81}, {"measurement": "Log reductions, attached on glass coupons", "setting": "[2]; PA 0 ppm, LA 1,250 ppm", "value": 0.4}, {"measurement": "Log reductions, attached on stainless steel coupons", "setting": "[2]; PA 0 ppm, LA 1,250 ppm", "value": 1.6}, {"measurement": "Log reductions, attached on glass coupons", "setting": "[2]; PA 0 ppm, LA 2,500 ppm", "value": 1.7}, {"measurement": "Log reductions, attached on plastic coupons", "setting": "[2]; PA 0 ppm, LA 2,500 ppm", "value": 0.6}, {"measurement": "Log reductions, attached on stainless steel coupons", "setting": "[2]; PA 0 ppm, LA 2,500 ppm", "value": 1.9}, {"measurement": "Log reductions, attached on wood coupons", "setting": "[2]; PA 0 ppm, LA 2,500 ppm", "value": 1.4}, {"measurement": "Log reductions, attached on plastic coupons", "setting": "[2]; PA 0 ppm, LA 5,000 ppm", "value": 1.2}, {"measurement": "Log reductions, attached on wood coupons", "setting": "[2]; PA 0 ppm, LA 7,500 ppm", "value": 3.6}, {"measurement": "log reduction of suspended Listeria innocua cells", "setting": "[3]; Lactic Acid 2000 ppm", "value": 0.08}, {"measurement": "log reduction of suspended Listeria innocua cells", "setting": "[3]; Lactic Acid 2500 ppm", "value": 0.19}, {"measurement": "log reduction of suspended Listeria innocua cells", "setting": "[3]; Lactic Acid 3000 ppm", "value": 0.05}]}, {"smiles": "CC(=O)OO", "note": "[Peroxyacetic acid, peroxyacetic acid]", "values": [{"measurement": "Log reductions, attached on glass coupons", "setting": "[2]; PA 60 ppm, LA 0 ppm", "value": 0.2}, {"measurement": "Log reductions, attached on plastic coupons", "setting": "[2]; PA 60 ppm, LA 0 ppm", "value": 1.2}, {"measurement": "Log reductions, attached on stainless steel coupons", "setting": "[2]; PA 60 ppm, LA 0 ppm", "value": 1.5}, {"measurement": "Log reductions, attached on glass coupons", "setting": "[2]; PA 80 ppm, LA 0 ppm", "value": 0.0}, {"measurement": "Log reductions, attached on plastic coupons", "setting": "[2]; PA 80 ppm, LA 0 ppm", "value": 0.9}, {"measurement": "Log reductions, attached on stainless steel coupons", "setting": "[2]; PA 100 ppm, LA 0 ppm", "value": 1.4}, {"measurement": "Log reductions, attached on wood coupons", "setting": "[2]; PA 100 ppm, LA 0 ppm", "value": 1.0}, {"measurement": "Log reductions, attached on wood coupons", "setting": "[2]; PA 140 ppm, LA 0 ppm", "value": 0.8}, {"measurement": "apparent equilibrium constant Kap", "setting": "[4]", "value": "about 2.21"}, {"measurement": "Aerobic Plate Counts Log Reduction", "setting": "[5]", "value": 0.7, "unit": "Log cfu/g"}, {"measurement": "Aerobic Plate Counts after wash", "setting": "[5]", "value": 2.7, "unit": "Log cfu/g"}, {"measurement": "log10 reduction of indigenous microorganism on the Romaine leaf", "setting": "[5]", "value": 0.7, "unit": "log10"}]}]}
